Eleven compounds from patent US8241862B2, “Perinucleolar compartment as a cancer marker” (Northwestern University, priority 2002, dated 2012) can be followed below.

Each structure is given as a SMILES string. *1 amine or outer side, *2 acyl side, *3 side chain or, on linkers, in order; H or OH if unused. Where a SMILES comes first, the peptide text is derived from it. Bridges are numbered along the chain shown (N, C = ends). Roman numbers before positions name the chains, in order. [ ]: non-standard residue; d: D form. Actinocin(9to1) = Cc1c2oc3c(C)ccc(C(=O)[*:1])c3nc-2c(C(=O)[*:2])c(N)c1=O; NMeV = CN[C@H](C(=O)O)C(C)C; Sar = CNCC(=O)O

This assay relates to HeLa cells. The assay is described as follows: Effect of chemotherapeutic drugs on PNC prevalence in cultured HeLa cells. Format: cell-based, human. The procedure:
Cultured HeLa cells, whose PNC prevalence is above 95%, were treated with various chemotherapeutic drugs.

In the case of `NC(=O)NO` [Hydroxyurea], the “Effect on PNC” value (0.5 to 1.5 μM, 16 hours) is “No effect on PNC structure”.
With `O=c1[nH]cc(F)c(=O)[nH]1` [5′-fluorouracil], the “Effect on PNC” value (1 to 5 μg/ml, 16 hours) is given as “No effect on PNC structure”.
As to `N.N.[Cl][Pt][Cl]` [Cisplatin], the “Effect on PNC (cell negative for PNC)” value (0.5 μg/ml, 5 hours) came out at 95% cell negative for PNC.
Regarding `Nc1ccn([C@@H]2O[C@H](CO)[C@@H](O)[C@@H]2O)c(=O)n1` [Cytosine Arabinoside], the “Effect on PNC” value (10 to 40 μg/ml, 16 hours) was “No effect on PNC structure”.
Consider `COc1cccc2c1C(=O)c1c(O)c3c(c(O)c1C2=O)C[C@@](O)(C(=O)CO)C[C@@H]3O[C@H]1C[C@H](N)[C@H](O)[C@H](C)O1` [Adriamycin], for which, under “5 to 40 μM, 16 hours”, the “Effect on PNC” value is given as “No effect on PNC structure”.
Consider `COc1cc(NS(C)(=O)=O)ccc1Nc1c2ccccc2nc2ccccc12` [AMSA], for which, where the note is “5 to 40 μM, 16 hours”, the “Effect on PNC” value is reported as “No effect on PNC structure”.
For the compound `CC(=O)O[C@H]1C(=O)[C@@]2(C)[C@H]([C@H](OC(=O)c3ccccc3)[C@]3(O)C[C@H](OC(=O)[C@H](O)[C@@H](NC(=O)c4ccccc4)c4ccccc4)C(C)=C1C3(C)C)[C@]1(OC(C)=O)CO[C@@H]1C[C@@H]2O` [Paclitaxel], under “5 to 40 μM, 16 hours”, the “Effect on PNC” value is “No effect on PNC structure”.
Turning to `CC[C@]1(O)C[C@H]2CN(CCc3c([nH]c4ccccc34)[C@@](C(=O)OC)(c3cc4c(cc3OC)N(C=O)[C@H]3[C@@](O)(C(=O)OC)[C@H](OC(C)=O)[C@]5(CC)C=CCN6CC[C@]43[C@@H]65)C2)C1` [Vincristine], where the note is “5 to 40 μM, 16 hours”, the “Effect on PNC” value is “No effect on PNC structure”.
For the compound `CC[C@@]1(O)C(=O)OCc2c1cc1n(c2=O)Cc2cc3ccccc3nc2-1` [Campothecin], the “Effect on PNC (cell negative for PNC)” value (1.25 to 2.5 μg/ml, 1 hour) is on record as 100% cell negative for PNC.
Turning to `Cc1c2oc3c(C)ccc(C(=O)N[C@@H]4C(=O)N[C@H](C(C)C)C(=O)N5CCC[C@H]5C(=O)N(C)CC(=O)N(C)[C@@H](C(C)C)C(=O)O[C@@H]4C)c3nc-2c(C(=O)N[C@@H]2C(=O)N[C@H](C(C)C)C(=O)N3CCC[C@H]3C(=O)N(C)CC(=O)N(C)[C@@H](C(C)C)C(=O)O[C@@H]2C)c(N)c1=O` [Actinomycin D] (I: T[dV]P[Sar][NMeV] / II: T[dV]P[Sar][NMeV]; ester I:1-I:C, II:1-II:C; linker I:N-II:N via Actinocin(9to1)), under “0.04 μg/ml, 2 hours”, the “Effect on PNC (cell negative for PNC)” value was found to be 100% cell negative for PNC.
For `CN(Cc1cnc2nc(N)nc(N)c2n1)c1ccc(C(=O)N[C@@H](CCC(=O)O)C(=O)O)cc1` [Methotrexate], the “Effect on PNC (cells negative for PNC)” value by setting is: (0.5 μg/ml, 16 hours) 30% cells negative for PNC; (1.0 μg/ml, 16 hours) 60% cells negative for PNC; (2.5 μg/ml, 16 hours) 80% cells negative for PNC. Besides, the “Response of PNC prevalence to dose” value (0.5 to 2.5 μg/ml, 16 hours) is “dose-dependent”.
